From PubChem BioAssay AID330 (DTP/NCI, 2004)
Values joined by “and” are separate entries in the source; they are usually repeats but may differ in a detail not shown here. Equal entries are not always repeated. Toxic doses and inconclusive results are not listed. How the source made its calls: active means survival T/C of 150% or more; inactive means T/C below 125% in these data.

Tested on: P388 leukemia ip, CD2F1 mice, survival T/C
Experiment: NCI In Vivo Anticancer Drug Screen. Data for tumor model P388 Leukemia (intraperitoneal) in CD2F1 (CDF1) mice
Conditions: endpoint: median survival time, higher = longer survival
Method in brief: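 Mice carrying the transplanted tumor received test compound or vehicle. Survival was recorded in each group, and the value is the treated-group measurement divided by that of the vehicle-treated control group.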

[1] = dose: 50.0 mg/kg/injection, schedule: Q01DX009 (ip), vehicle: saline
[2] = dose: 100.0 mg/kg/injection, schedule: Q01DX009 (ip), vehicle: saline
[3] = dose: 200.0 mg/kg/injection, schedule: Q01DX009 (ip), vehicle: saline
[4] = dose: 60.0 mg/kg/injection, schedule: Q01DX005 (ip), vehicle: saline with Tween-80
[5] = dose: 120.0 mg/kg/injection, schedule: Q01DX005 (ip), vehicle: saline with Tween-80
[6] = dose: 240.0 mg/kg/injection, schedule: Q01DX005 (ip), vehicle: saline with Tween-80
[7] = dose: 50.0 mg/kg/injection, schedule: Q01DX009 (ip), vehicle: Klucel (hydroxypropylcellulose) (HPC)
[8] = dose: 200.0 mg/kg/injection, schedule: Q01DX009 (ip), vehicle: Klucel (hydroxypropylcellulose) (HPC)
[9] = dose: 6.25 mg/kg/injection, schedule: Q01DX009 (ip), vehicle: saline
[10] = dose: 12.5 mg/kg/injection, schedule: Q01DX009 (ip), vehicle: saline
[11] = dose: 60.0 mg/kg/injection, schedule: Q01DX005 (ip), vehicle: saline

Measured: T/C

CC1C(O)CC23COC(=O)C2=CCCC3C1(C)CCC1COC(=O)C1 (configuration not stated)
inactive: dose: 9.38 mg/kg/injection, schedule: Q01DX005 (ip), vehicle: Klucel (hydroxypropylcellulose) (HPC) 101 % of control | dose: 18.75 mg/kg/injection, schedule: Q01DX005 (ip), vehicle: Klucel (hydroxypropylcellulose) (HPC) 90 % of control | dose: 37.5 mg/kg/injection, schedule: Q01DX005 (ip), vehicle: Klucel (hydroxypropylcellulose) (HPC) 105 % of control | dose: 75.0 mg/kg/injection, schedule: Q01DX005 (ip), vehicle: Klucel (hydroxypropylcellulose) (HPC) 117 % of control

O=C1C=C(Cl)C(=O)C2=C1CCCC2
inactive: dose: 6.25 mg/kg/injection, schedule: Q04DX002 (ip), vehicle: saline with Tween-80 97 % of control

CN(C)C(=O)n1ccc(NC=O)n1
inactive: [1] 92 % of control | [2] 94 % of control | [3] 103 % of control

OC1=CC(=S)NC(c2ccccc2)C1 (configuration not stated)
inactive: dose: 50.0 mg/kg/injection, schedule: Q01DX005 (ip), vehicle: Klucel (hydroxypropylcellulose) (HPC) 99 % of control | dose: 100.0 mg/kg/injection, schedule: Q01DX005 (ip), vehicle: Klucel (hydroxypropylcellulose) (HPC) 106 % of control | dose: 200.0 mg/kg/injection, schedule: Q01DX005 (ip), vehicle: Klucel (hydroxypropylcellulose) (HPC) 108 % of control

COC(=O)C(=O)c1c(C(=O)OC)nc2nnc(N)n2c1C1CC1
inactive: [4] 100 % of control | [5] 107 % of control | [6] 105 % of control

O=S1(=O)C(=C(c2ccccc2)c2ccccc2)S(=O)(=O)c2ccccc21
inactive: [4] 104 % of control | [5] 96 % of control | [6] 102 % of control

CS(=O)(=O)c1nc2ccc(N3C(=O)c4ccccc4C3=O)cc2s1
inactive: dose: 12.5 mg/kg/injection, schedule: Q01DX009 (ip), vehicle: Klucel (hydroxypropylcellulose) (HPC) 108 % of control | dose: 25.0 mg/kg/injection, schedule: Q01DX009 (ip), vehicle: Klucel (hydroxypropylcellulose) (HPC) 107 % of control | [7] 110 % of control and 89 % of control | [8] 105 % of control

CCOC(=O)/C=C(/C)SC1=CC(=O)c2ccccc2C1=O
inactive: dose: 1.56 mg/kg/injection, schedule: Q01DX009 (ip), vehicle: saline 91 % of control | [9] 98 % of control | dose: 12.5 mg/kg/injection, schedule: Q01DX009 (ip), vehicle: saline with Tween-80 119 % of control | [10] 100 % of control

O=C(CC1(O)C(=O)Nc2ccc([N+](=O)[O-])cc21)c1ccco1 (configuration not stated)
inactive: dose: 60.0 mg/kg/injection, schedule: Q01DX005 (ip), vehicle: Klucel (hydroxypropylcellulose) (HPC) 96 % of control | dose: 120.0 mg/kg/injection, schedule: Q01DX005 (ip), vehicle: Klucel (hydroxypropylcellulose) (HPC) 100 % of control | dose: 240.0 mg/kg/injection, schedule: Q01DX005 (ip), vehicle: Klucel (hydroxypropylcellulose) (HPC) 99 % of control

CN(/N=C(C#N)/C(N)=N/N)c1ccccc1
inactive: dose: 100.0 mg/kg/injection, schedule: Q04DX002 (ip), vehicle: saline with Tween-80 96 % of control | dose: 200.0 mg/kg/injection, schedule: Q04DX002 (ip), vehicle: saline with Tween-80 96 % of control

NNC(=O)c1cc2c(cn1)[nH]c1ccccc12
inactive: dose: 12.5 mg/kg/injection, schedule: Q01DX009 (ip), vehicle: other 101 % of control | dose: 25.0 mg/kg/injection, schedule: Q01DX009 (ip), vehicle: other 98 % of control | dose: 50.0 mg/kg/injection, schedule: Q01DX009 (ip), vehicle: other 97 % of control | dose: 100.0 mg/kg/injection, schedule: Q01DX009 (ip), vehicle: other 92 % of control | dose: 200.0 mg/kg/injection, schedule: Q01DX009 (ip), vehicle: other 101 % of control

CCOC(=O)C1=Nc2ccccc2N=C(C2C(=O)C=C(C)OC2=O)C1 (configuration not stated)
inactive: dose: 100.0 mg/kg/injection, schedule: Q01DX001 (ip), vehicle: saline 108 % of control | dose: 200.0 mg/kg/injection, schedule: Q01DX001 (ip), vehicle: saline 104 % of control | dose: 400.0 mg/kg/injection, schedule: Q01DX001 (ip), vehicle: saline 103 % of control

O=C(C=Nc1ccc(Cl)c(Cl)c1)c1ccccc1
inactive: [7] 100 % of control | dose: 100.0 mg/kg/injection, schedule: Q01DX009 (ip), vehicle: Klucel (hydroxypropylcellulose) (HPC) 100 % of control | [8] 94 % of control

Cn1c2ccccc2c(=O)c2c([N+](=O)[O-])ccc(NCCN)c21
inactive: [11] 109 % of control | dose: 120.0 mg/kg/injection, schedule: Q01DX005 (ip), vehicle: saline 114 % of control

CCCN(C)C12CN3CN(CN(C3)C1)C2
inactive: dose: 100.0 mg/kg/injection, schedule: Q04DX003 (ip), vehicle: saline 106 % of control | dose: 200.0 mg/kg/injection, schedule: Q04DX003 (ip), vehicle: saline 95 % of control | dose: 400.0 mg/kg/injection, schedule: Q04DX003 (ip), vehicle: saline 100 % of control

COC(=O)C1=CN(C)/C(=C/C=C(\C#N)C(=O)OC)C(C#N)=C1N
inactive: dose: 100.0 mg/kg/injection, schedule: Q01DX001 (ip), vehicle: Klucel (hydroxypropylcellulose) (HPC) 96 % of control | dose: 200.0 mg/kg/injection, schedule: Q01DX001 (ip), vehicle: Klucel (hydroxypropylcellulose) (HPC) 97 % of control | dose: 400.0 mg/kg/injection, schedule: Q01DX001 (ip), vehicle: Klucel (hydroxypropylcellulose) (HPC) 96 % of control

COC1=C(Br)[C@H](O)[C@](O)(CC#N)C=C1Br
inactive: [9] 121 % of control | dose: 8.75 mg/kg/injection, schedule: Q01DX009 (ip), vehicle: Klucel (hydroxypropylcellulose) (HPC) 119 % of control | [10] 123 % of control | dose: 25.0 mg/kg/injection, schedule: Q01DX009 (ip), vehicle: saline 118 % of control

CCN(CC)CCOC(=O)Nc1cc(C(F)(F)F)ccc1Cl
inactive: [4] 111 % of control | [5] 109 % of control | [6] 90 % of control

CCOc1ccc2nc3cc(I)ccc3c(N)c2c1
inactive: dose: 7.5 mg/kg/injection, schedule: Q01DX005 (ip), vehicle: saline with Tween-80 102 % of control | dose: 15.0 mg/kg/injection, schedule: Q01DX005 (ip), vehicle: saline with Tween-80 100 % of control | dose: 30.0 mg/kg/injection, schedule: Q01DX005 (ip), vehicle: saline with Tween-80 112 % of control

COC1(OC)C2CCC1C(Cl)=C2Cl
inactive: dose: 3.13 mg/kg/injection, schedule: Q01DX009 (ip), vehicle: saline with Tween-80 93 % of control | dose: 3.13 mg/kg/injection, schedule: Q01DX009 (ip), vehicle: saline 108 % of control | dose: 6.25 mg/kg/injection, schedule: Q01DX009 (ip), vehicle: saline with Tween-80 108 % of control | [9] 107 % of control | [10] 124 % of control

CCN(CC)Cc1cc(Nc2cc(C)nc3ccc(N(C)C)cc23)ccc1O
inactive: dose: 15.0 mg/kg/injection, schedule: Q01DX005 (ip), vehicle: saline 91 % of control | dose: 30.0 mg/kg/injection, schedule: Q01DX005 (ip), vehicle: saline 100 % of control | [11] 104 % of control and 110 % of control

O=C(O)CCc1cccnc1
inactive: dose: 266.0 mg/kg/injection, schedule: Q01DX009 (ip), vehicle: saline with Tween-80 105 % of control | dose: 400.0 mg/kg/injection, schedule: Q01DX009 (ip), vehicle: saline with Tween-80 115 % of control

CSc1ccc(NC(=S)SC(C)C)cc1Cl
inactive: [1] 97 % of control | [2] 97 % of control | [3] 102 % of control
